Measured values as given in patent US20250352654A1, “PHARMACEUTICAL AGENT CONJUGATES TO MODULATE MACROPHAGE AND INFLAMMATORY FUNCTIONS AND USES THEREOF” (REGENTS OF THE UNIVERSITY OF MINNESOTA, priority 2022, published 2025).
Bridge positions count the residues as written; N and C are the ends. Peptide text beside a SMILES is read from it. * marks the point of attachment. 5FAM = O=C1OC2(c3ccc(O)cc3Oc3cc(O)ccc32)c2ccc(C(=O)*)cc21; Ahx = NCCCCCC(=O)O

How the values were obtained:
[1] = DEX-PEG conjugations with different PEG lengths in obese mice with ALI; format: in vivo, mouse; conditions: 0.1 mg/kg DEX equivalent i.v. every other day for 3 weeks
Protocol: (A) Body weight of mice in each treatment group. (B) Blood glucose of mice during the ITT experiment. Mice were fasted for 6 hours, and […] of insulin was administered via intraperitoneal (i.p.) injection. The blood glucose levels were measured using Clarity BG1000 Blood Glucose Meter Strips at 0, 15, 30, 60, 90, and 120 minutes after the injection. (C) Thymus weight of mice in each group at the end of the study. Triglycerides (D), total cholesterol (E) and non-HDL cholesterol (F) in mice plasma were quantified by LiquiColor® Test (Enzymatic) Kit. Error bars indicate S.E.M., n=4. *p<0.05 and **p<0.01 (Student's t-test).
Liver was collected, fixed and sectioned. H&E staining was carried out according to the standard protocol. Scale bar, […] for all images.
Male C57 mice were subjected to high-fat diet feeding for 8 weeks to induce obesity. An acute lung injury (ALI) model was established in the obesity mice by administering 30 μg of LPS intratracheally per mouse.
In addition, lean mice and obese mice without ALI were included in the study as controls and received no treatment. Body weight of the mice was monitored every other day during the study. One day prior to sacrificing the mice, an insulin tolerance test (ITT) was conducted. Blood and major organs were collected at the end of the study, and plasma triglycerides, total and non-HDL cholesterol were quantified. The organs were weighed and sectioned for H&E staining.

[2] = Long-term toxicity of DEX conjugates in healthy mice; format: in vivo, mouse; conditions: 2 mg kg-1 DEX equivalent, daily i.v. for 2 weeks
Protocol: (§1) (A) Quantification of immunofluorescent signals (Top) and representative immunofluorescent images (bottom) of TUNEL-positive cells showing apoptotic cells in tissues of mice receiving short-term treatments. (B-C) Plasma levels of liver enzymes alanine transaminase (ALT) and (F) aspartate transaminase (AST). […] Thymus and spleen weight in mice receiving long-term treatments.
(§2) The TUNEL staining was performed using an In Situ Cell Death Detection Kit (Roche Diagnostics GmbH, Mannheim, Germany). The paraffin sections were stained with TUNEL reaction mixture for 1 h at 37° C. followed by Hoechst staining for nucleus. The images were captured by using fluorescence microscopy EVOS M5000 and the fluorescence intensity of TUNEL positive cells was evaluated by ImageJ software for semi-quantification.
(§3) The aminotransferase quantification was performed to determine toxicity effect of different formulations of PSL on the liver. Blood samples were collected by cardiac puncture after the treatment. The levels of aspartate aminotransferase (AST) and alanine aminotransferase (ALT) in plasma were measured using assay kits from Stanbio (Boerne, TX).
(§4) Additionally, we examined the commonly seen systemic side effects including the reduced thymus and spleen weight due to increased apoptosis after a short-term low dose and a long-term glucocorticoid usage.

[3] = Short-term side effects of DEX conjugates in CIA mice; format: in vivo, mouse; conditions: 0.01 mg kg-1 DEX equivalent i.v. every two days for one week
Protocol: as §1, §2, §3, §4

[4] = In vivo pharmacokinetics of DEX conjugates; conditions: male, DBA/1J, mouse, plasma, iv, 1 mg kg^-1 (DEX equivalent); healthy mice; mean ± SD (n = 3)
Protocol: All the animal experiments were performed on 3 mice per group. The data are presented as the mean±standard deviation (SD). […] All the animal experiments were performed on 3 mice per group. The data are presented as the mean±standard deviation (SD). Statistical significance was calculated using Student's t test. *P<0.05, **P<0.01 between groups. […] ND, not determined.
HPLC-MS/MS analysis was performed using the chromatographic system consisting of UltiMate 3000 RSLCnano System (Thermo Fisher Scientific) and a ZORBAX C18 column (5 μm, 150 mm 0.5 mm, Agilent, Santa Clara, CA). The mobile phase was a mixture of H2O/acetonitrile with a gradient elution (from 90:10 to 10:90 and return to 90:10, v/v) at a flow rate of 15 μl/min. The eluent was introduced directly into the electrospray source of a tandem quadrupole mass spectrometer (TSQ VANTAGE, Thermo Fisher Scientific) that was operated in the positive mode. The spray voltage was set at 3000 V. The compounds were analyzed by multiple reaction monitoring (MRM) of the transitions of m/z (ESI+) 361.24→147.06 for PSL.
Healthy DBA/1J male mice at age of 8-9 weeks were deprived of food overnight with free access to water. […] Approximately 20 IL of blood was collected via facial vein at 5, 15, 30, 60 min and, 2, 6, 12, 24, and 48 h, and plasma were obtained by centrifugation at 500×g for 10 min. […]

[5] = test system: inflamed synovium of the arthritic joints; test: FAM-CRV homing in CIA mice (IHC/IF); format: in vivo, mouse; conditions: i.v., 1 h, IHC
Protocol: FIGS. 7B-7D illustrates In vivo CRV peptide distribution in arthritic mouse models. (B) Scheme of synthesis of 64Cu-DOTA-CRV. (C) Representative immunohistochemistry (IHC) images of peptide accumulation in the tissues of collagen-induced-arthritis (CIA) mice with anti-FITC antibody for FAM-labeled CRV and FAM-GGS, upon intravenous injection for 1 h, respectively. Scale bars: 100 μm. (D) Representative IHC images of CRV-peptide and a control peptide (GGS) accumulation in the ankle joints of K/B×N serum-transfer arthritic mice at 1 h post intravenous injection as detected by FAM signals with anti-FITC antibody. Scale bar: 200 μm for 10× magnification; 100 μm for 20× magnification. All the animal experiments were performed in 3 mice per group. DOTA, 1,4,7,10-tetraazacyclododocane tetraacetic acid; FAM, carboxyfluorescein; FITC, fluorescein isothiocyanate.
FIG. 8A-8G CRV targets the inflamed synovium of the arthritic joints. (A) Scheme of the establishment of collagen-induced arthritis (CIA) model. (B) In vivo PET/CT images of 64Cu-DOTA and 64Cu-DOTA-CRV accumulation at the joints of mice with CIA. […] (C) Quantification of 64Cu-DOTA or 64Cu-DOTA-CRV uptake at the knees and ankles by analyzing PET data of the region of interest (ROI). […] (E) Representative IHC images of CRV-peptide accumulation in the knee joint as detected by FAM signals with anti-FITC antibody. […]

Row | SMILES | Thymus weight [1] | body weights or blood glucose [1] | triglycerides in the plasma [1] | apoptosis in thymus and spleen (TUNEL), long-term [2] | thymus and spleen weight, long-term [2] | apoptosis in tissues (TUNEL), short-term [3] | AUC(0-t) [4] [ng·h/mL] | peptide accumulation in other organs [5]
1 | C[C@@H]1C[C@H]2[C@@H]3CCC4=CC(=O)C=C[C@]4(C)[C@@]3(F)[C@@H](O)C[C@]2(C)[C@@]1(O)C(=O)CO [DEX, dexamethasone] | reduces thymus weight | no change | elevates the blood triglyceride | increased apoptosis in thymus and spleen | most significant weight loss of thymus and spleen | increases the level of apoptosis mainly in the thymus | 23.2 ± 5.14 | –
2 | CC(C)C[C@@H]1NC(=O)[C@H](C(C)C)NC(=O)[C@H](CCCNC(=N)N)NC(=O)[C@@H](NC(=O)CCCCCNC(=O)c2ccc3c(c2)C(=O)OC32c3ccc(O)cc3Oc3cc(O)ccc32)CSSC[C@@H](C(=O)O)NC(=O)[C@H](CO)NC(=O)CNC(=O)[C@H](CO)NC(=O)[C@H](CCCNC(=N)N)NC1=O [CRV] ({5FAM-Ahx}-CRVLRSGSC-OH; disulfide 1-9) | – | – | – | – | – | – | – | some accumulation of CRV in the liver and kidney, while no or much less in other organs
